Values quoted from earlier work as cited in patent US20110008426A1, “MODIFIED RELEASE PHARMACEUTICAL COMPOSITIONS COMPRISING MYCOPHENOLATE AND PROCESSES THEREOF” (priority 2008, published 2011).
“And” between values parts separate entries of the source, which are not always exact repeats. Equal entries are not always repeated. Where two headings read alike, the source gives them in different places.

Assays:
[1] = MMF 1 g b.i.d; EC-MPS 720 mg b.i.d
[2] = 423 de novo kidney allograft recipients
[3] = not given; remark: listed apart in the source
[4] = not given; remark: listed apart in the source
[5] = transplant patients, acute rejection
[6] = controlled de novo and maintenance renal studies, patients

SMILES	Cmax of MPA [1]	incidence of GI adverse events [2]	adverse effects: blood and lymphatic system disorders (www.rxlist.com)	adverse effects: constipation (www.rxlist.com)	adverse effects: diarrhea (www.rxlist.com)	adverse effects: nausea (www.rxlist.com)	adverse effects: urinary tract infections (www.rxlist.com)	adverse effects: vomiting (www.rxlist.com)	Adverse Events: Anemia [3, 6]	Adverse Events: Constipation [3, 6]	Adverse Events: Diarrhoea [3, 6]	Adverse Events: Dyspepsia [3, 6]	Adverse Events: Insomnia [3, 6]	Adverse Events: Leukopenia [3, 6]	Adverse Events: Nausea [3, 6]	Adverse Events: Urinary Tract Infection [3, 6]	Adverse Events: Vomiting [3, 6]	further results
COc1c(C)c2c(c(O)c1C/C=C(\C)CCC(=O)O)C(=O)OC2 [MPS, mycophenolate sodium]	18930 ng/mL	79.8%	41.8%	38%	23.5%	29%	29.1%	23%	21.9%	39.5%	23.5%	19%	23.8%	20.5%	27.1%	33.3%	23%	adverse effects: CMV infection (in vivo): 20.2%; Adverse Events: CMV infections ([3]; in vivo): 18.1%; solubility of the drug ([4]; pH above 6.0): high solubility; solubility of the drug ([4]; pH below 6.0): poor solubility
COc1c(C)c2c(c(O)c1C/C=C(\C)CCC(=O)O)C(=O)OC2 [mycophenolic acid, Mycophenolic acid]																		mycophenolic acid AUC expected to yield 50% of maximal achievable efficacy [5]: 15 µg·h/mL; mycophenolic acid AUC that would yield 90% efficacy [5]: 25 µg·h/mL and 40 µg·h/mL
COc1c(C)c2c(c(O)c1C/C=C(\C)CCC(=O)OCCN1CCOCC1)C(=O)OC2 [MMF, mycophenolate mofetil]	21300 ng/mL	77.1%	42.4%	39.5%	24.8%	27.1%	33.3%	20%	21.6%	38.0%	24.8%	22.5%	23.5%	19.2%	29.1%	29.1%	20%	adverse effects: CMV infection (www.rxlist.com): 18.1%; Adverse Events: CMV infections [3, 6]: 20.2%
